Measurements from article PMC12042413 (Cell chemical biology, 2025).

How the values were obtained:
CDK9/Cyclin T1 = CDK9/Cyclin T1 (Homo sapiens, UniProt P50750); assay: biochemical kinase IC50
CDK9 = CDK9 (Homo sapiens, UniProt P50750); assay: competition rescue of CDK9 degradation in MOLT-4 cells; format: cell-based
Chain of CDK9 (P50750 whole entry): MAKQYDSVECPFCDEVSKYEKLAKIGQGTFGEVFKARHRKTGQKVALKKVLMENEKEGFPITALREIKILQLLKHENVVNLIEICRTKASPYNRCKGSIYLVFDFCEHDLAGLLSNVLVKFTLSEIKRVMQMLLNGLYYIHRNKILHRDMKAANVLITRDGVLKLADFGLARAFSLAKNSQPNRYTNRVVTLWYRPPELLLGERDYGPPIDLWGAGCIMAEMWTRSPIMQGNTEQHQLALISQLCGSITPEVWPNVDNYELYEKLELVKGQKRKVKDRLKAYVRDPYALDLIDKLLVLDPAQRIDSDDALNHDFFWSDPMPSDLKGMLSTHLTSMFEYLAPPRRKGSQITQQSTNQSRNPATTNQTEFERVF

Chain of CDK9/Cyclin T1 (P50750 whole entry): as above
Chain of CDK9/Cyclin T1 (O60563 whole entry partner): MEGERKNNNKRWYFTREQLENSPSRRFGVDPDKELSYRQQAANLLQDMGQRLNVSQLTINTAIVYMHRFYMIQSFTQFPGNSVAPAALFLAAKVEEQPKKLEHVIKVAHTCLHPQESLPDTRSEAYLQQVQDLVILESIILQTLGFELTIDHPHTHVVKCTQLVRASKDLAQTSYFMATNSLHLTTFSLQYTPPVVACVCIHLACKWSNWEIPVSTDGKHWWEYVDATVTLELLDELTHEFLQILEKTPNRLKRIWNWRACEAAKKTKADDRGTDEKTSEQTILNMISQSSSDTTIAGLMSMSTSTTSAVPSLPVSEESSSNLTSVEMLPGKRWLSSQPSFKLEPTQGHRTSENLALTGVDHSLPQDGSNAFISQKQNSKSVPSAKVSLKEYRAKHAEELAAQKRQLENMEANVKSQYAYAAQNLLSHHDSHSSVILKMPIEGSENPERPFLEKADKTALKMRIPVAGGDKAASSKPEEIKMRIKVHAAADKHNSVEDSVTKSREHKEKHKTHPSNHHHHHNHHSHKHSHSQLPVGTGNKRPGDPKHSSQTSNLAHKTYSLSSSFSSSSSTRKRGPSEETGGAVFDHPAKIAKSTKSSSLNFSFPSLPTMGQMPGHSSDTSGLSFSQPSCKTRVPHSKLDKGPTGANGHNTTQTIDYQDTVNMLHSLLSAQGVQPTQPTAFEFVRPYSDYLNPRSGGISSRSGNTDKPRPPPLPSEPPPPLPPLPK

Row | Compound | IC50 (CDK9/Cyclin T1) [nM] | competition rescue of CDK9 degradation in MOLT-4 cells (Western blot, 5 uM) (CDK9)
1 | CCCc1cc(N[C@@H]2CC[C@@H](NC(=O)c3ccc(CN4CCN(c5ccc6c(c5)CN(C5CCC(=O)NC5=O)C6=O)CC4)cc3)C2)n2nccc2n1 (stereo partly drawn) [KI-CDK9d-32, 4-((4-(2-(2,6-dioxopiperidin-3-yl)-1-oxoisoindolin-5-yl)piperazin-1-yl)methyl)-N-((1R,3R)-3-((5-propylpyrazolo[1,5-a]pyrimidin-7-yl)amino)cyclopentyl)benzamide] | 3 | 
2 | CCCc1cc(N[C@@H]2CC[C@@H](NC(=O)c3ccc(CN4CCN(c5ccc6c(c5)CN(C5CCC(=O)N(C)C5=O)C6=O)CC4)cc3)C2)n2nccc2n1 (stereo partly drawn) [KI-CDK9d-32N, 4-((4-(2-(1-methyl-2,6-dioxopiperidin-3-yl)-1-oxoisoindolin-5-yl)piperazin-1-yl)methyl)-N-((1R,3R)-3-((5-propylpyrazolo[1,5-a]pyrimidin-7-yl)amino)cyclopentyl)benzamide] |  | rescued through co-treatments with excess KB-0742, pomalidomide, or KI-CDK9d-32N, a negative control PROTAC with impaired CRBN binding
